Measured values reported in US20230106506A1, “NOVEL PqsR INVERSE AGONISTS” (Helmholtz-Zentrum Fur Infektionsforschung GmbH, priority 2020, published 2023).

Assays:
[1] = Kinetic turbidimetric aqueous solubility; format: physicochemical; conditions: aqueous buffer, kinetic from dmso stock; PBS buffer, final DMSO 2%, absorbance 620 nm; read-out: Kinetic Turbidimetric Aqueous Solubility at room temperature for 5 min
Protocol: Kinetic Turbidimetric Aqueous Solubility at room temperature for 5 min. […] Data was analyzed by fitting a four parameter sigmoidal function to the measured and normalized absorbances and AUC calculation providing access to Log S (decadic logarithm of the solubility).

[2] = system: P. aeruginosa pyocyanin production; test: Pyocyanin assay; format: cell-based, P. aeruginosa strain PA14; conditions: Pseudomonas aeruginosa, PA14, 16 h, read-out: IC50-value towards pyocyanin production
Protocol: Inhibition of P. aeruginosa pyocyanin production by compounds was determined photometrically as described before. In short, an overnight culture of PA14 in PPGAS medium was washed, diluted in medium to a start OD600 of 0.02, and incubated for 16 h (37° C., 200 rpm, relative humidity 75%) in the presence of test compounds. Then, cultures were extracted with chloroform and re-extracted with 0.2 M HCl. Protonated red colored pyocyanin was determined by measuring OD520 and normalizing to OD600.

[3] = Metabolic stability in mouse liver microsomes (MLM); format: in vitro ADME; conditions: 1 μM compound, 0.5 mg/mL MLM, 1 mM NADPH, 37° C., read-out: half-life (t1/2) towards MLM
Protocol: For the evaluation of phase I metabolic stability, the compound (1 μM) was incubated with 0.5 mg/mL MLM (Corning) and 1 mM NADPH at 37° C. for 0, 5, 10, 15 and 30 min. The metabolic stability of Verapamil, Diphenhydramine and Benzydamine (1 μM each) were determined in parallel to confirm the enzymatic activity of the MLM. The incubation was stopped by addition of 2 volumes of acetonitrile containing internal standard (1 μM Leucine Enkephaline). Samples were centrifuged (15 min, 3,500 rpm). Concentration of the remaining test compound at the different time points was analyzed by HPLC-MS/MS and used to determine half-life (t1/2).

Row | Structure (SMILES) | solubility at 5 min [1] | IC50 [2] | half-life at 1 µM [3]
1 | N#Cc1cccc(-c2ncc(CNc3cc(-c4cn[nH]c4)nc(C(F)(F)F)c3)cn2)c1 [Compound 36, 3-(5-(((2-(1H-Pyrazol-4-yl)-6-(trifluoromethyl)pyridin-4-yl)amino)methyl)pyrimidin-2-yl)benzonitrile] | > 25 µM | 201 to 500 nM | –
2 | Fc1cccc(Oc2ccc(-c3ncc(CNc4cc(-c5cn[nH]c5)nc(C(F)(F)F)c4)cn3)cc2)c1 [Compound 52, N-((2-(4-(3-Fluorophenoxy)phenyl)pyrimidin-5-yl)methyl)-2-(1H-pyrazol-4-yl)-6-(trifluoromethyl)pyridin-4-amine] | – | 101 to 200 nM | > 1.67 h
3 | N#Cc1cc(-c2ncc(CNc3cc(-c4cn[nH]c4)nc(C(F)(F)F)c3)cn2)ccc1Cl [Compound 50, 5-(5-(((2-(1H-Pyrazol-4-yl)-6-(trifluoromethyl)pyridin-4-yl)amino)methyl)pyrimidin-2-yl)-2-chlorobenzonitrile] | – | 101 to 200 nM | –
4 | CC(C)Oc1ccc(-c2ncc(CNc3cc(-n4cncn4)nc(C(F)(F)F)c3)cn2)cc1 [Compound 59, N-((2-(4-Isopropoxyphenyl)pyrimidin-5-yl)methyl)-2-(1H-1,2,4-triazol-1-yl)-6-(trifluoromethyl)pyridin-4-amine] | – | 101 to 200 nM | > 1.67 h
5 | Cc1ccc(-c2ncc(CNc3cc(-c4cn[nH]c4)nc(C(F)(F)F)c3)cn2)cc1C#N [Compound 37, 5-(5-(((2-(1H-Pyrazol-4-yl)-6-(trifluoromethyl)pyridin-4-yl)amino)methyl)pyrimidin-2-yl)-2-methylbenzonitrile] | > 10 µM | 101 to 200 nM | –
6 | CC(C)Oc1ccc(-c2ccc(CNc3cc(-n4cncn4)nc(C(F)(F)F)c3)nc2)cc1Cl [Compound 26, N-((5-(3-Chloro-4-isopropoxyphenyl)pyridin-2-yl)methyl)-2-(1H-1,2,4-triazol-1-yl)-6-(trifluoromethyl)pyridin-4-amine] | – | 201 to 500 nM | > 1.67 h
7 | FC(F)(F)c1cc(NCc2cnc(-c3ccc(Oc4ccc(Cl)cc4)cc3)nc2)cc(-c2cn[nH]c2)n1 [Compound 54, N-((2-(4-(4-Chlorophenoxy)phenyl)pyrimidin-5-yl)methyl)-2-(1H-pyrazol-4-yl)-6-(trifluoromethyl)pyridin-4-amine] | > 10 µM | – | > 1.67 h
8 | CC(C)Oc1ccc(-c2cnc(CNc3cc(-n4ccnc4)nc(C(F)(F)F)c3)nc2)cc1 [Compound 45, 2-(1H-Imidazol-1-yl)-N-((5-(4-isopropoxyphenyl)pyrimidin-2-yl)methyl)-6-(trifluoromethyl)pyridin-4-amine] | – | 201 to 500 nM | > 1.67 h
9 | CC(C)Oc1ccc(-n2cc(CNc3cc(-n4cncn4)nc(C(F)(F)F)c3)nn2)cc1 [Compound 06, N-((1-(4-Isopropoxyphenyl)-1H-1,2,3-triazol-4-yl)methyl)-2-(1H-1,2,4-triazol-1-yl)-6-(trifluoromethyl)pyridin-4-amine] | > 10 µM | – | 1.02 to 1.67 h
10 | FC(F)(F)c1cc(SCc2nc3cc(Oc4ccccc4)ccc3[nH]2)cc(-n2ccnc2)n1 [Compound 62, 2-(((2-(1H-Imidazol-1-yl)-6-(trifluoromethyl)pyridin-4-yl)thio)methyl)-5-phenoxy-1H-benzo[d]imidazole] | – | 201 to 500 nM | –
11 | CC(C)Oc1ccc(-c2ncc(CNc3cc(-c4cnc[nH]4)nc(C(F)(F)F)c3)cn2)cc1 [Compound 41, 2-(1H-Imidazol-5-yl)-N-((2-(4-isopropoxyphenyl)pyrimidin-5-yl)methyl)-6-(trifluoromethyl)pyridin-4-amine] | > 10 µM | – | > 1.67 h
12 | FC(F)(F)c1nc(SCc2nc3cc(Oc4ccccc4)ccc3[nH]2)cc(-n2ccnc2)n1 [Compound 63, 2-(((6-(1H-Imidazol-1-yl)-2-(trifluoromethyl)pyrimidin-4-yl)thio)methyl)-5-phenoxy-1H-benzo[d]imidazole] | > 10 µM | – | –
13 | CC(C)Oc1ccc(-c2cnc(CNc3cc(-n4cncn4)nc(C(F)(F)F)c3)nc2)cc1 [Compound 42, N-((5-(4-Isopropoxyphenyl)pyrimidin-2-yl)methyl)-2-(1H-1,2,4-triazol-1-yl)-6-(trifluoromethyl)pyridin-4-amine] | – | 201 to 500 nM | > 1.67 h
14 | CC(C)Oc1ccc(-c2ccc(CNc3cc(-c4cn[nH]c4)nc(C(F)(F)F)c3)nn2)cc1 [Compound 22, N-((6-(4-Isopropoxyphenyl)pyridazin-3-yl)methyl)-2-(1H-pyrazol-4-yl)-6-(trifluoromethyl)pyridin-4-amine] | > 25 µM | 201 to 500 nM | –
15 | CC(C)Oc1ccc(-c2cnc(CNc3cc(-n4ccnc4)nc(C(F)(F)F)c3)nc2)cc1Cl [Compound 46, N-((5-(3-Chloro-4-isopropoxyphenyl)pyrimidin-2-yl)methyl)-2-(1H-imidazol-1-yl)-6-(trifluoromethyl)pyridin-4-amine] | – | 201 to 500 nM | 1.02 to 1.67 h
16 | CC(C)Oc1ccc(-c2ncc(CNc3cc(-c4cncs4)nc(C(F)(F)F)c3)cn2)cc1 [Compound 70, N-((2-(4-Isopropoxyphenyl)pyrimidin-5-yl)methyl)-2-(thiazol-5-yl)-6-(trifluoromethyl)pyridin-4-amine] | – | 101 to 200 nM | > 1.67 h
17 | CC(C)Oc1ccc(-c2ncc(CNc3cc(-n4ccnc4)nc(C(F)(F)F)c3)cn2)cc1 [Compound 29, 2-(1H-Imidazol-1-yl)-N-((2-(4-isopropoxyphenyl)pyrimidin-5-yl)methyl)-6-(trifluoromethyl)pyridin-4-amine] | – | 101 to 200 nM | > 1.67 h
18 | CC(C)Oc1ccc(-c2cnc(CNc3cc(-n4cncn4)nc(C(F)(F)F)c3)nc2)cc1Cl [Compound 43, N-((5-(3-Chloro-4-isopropoxyphenyl)pyrimidin-2-yl)methyl)-2-(1H-1,2,4-triazol-1-yl)-6-(trifluoromethyl)pyridin-4-amine] | > 10 µM | – | > 1.67 h
19 | CC(C)Oc1ccc(-c2cnc(CNc3cc(-c4cn[nH]c4)nc(C(F)(F)F)c3)nc2)cc1 [Compound 40, N-((5-(4-Isopropoxyphenyl)pyrimidin-2-yl)methyl)-2-(1H-pyrazol-4-yl)-6-(trifluoromethyl)pyridin-4-amine] | > 10 µM | 201 to 500 nM | –
20 | CC(C)Oc1ccc(-c2ncc(CNc3cc(-c4cc[nH]n4)nc(C(F)(F)F)c3)cn2)cc1Cl [Compound 32, N-((2-(3-Chloro-4-isopropoxyphenyl)pyrimidin-5-yl)methyl)-2-(1H-pyrazol-3-yl)-6-(trifluoromethyl)pyridin-4-amine] | – | 201 to 500 nM | 1.02 to 1.67 h
21 | CC(C)Oc1ccc(-c2ncc(CNc3cc(-c4nn[nH]n4)nc(C(F)(F)F)c3)s2)cc1 [Compound 19] | ≥ 100 µM | – | > 1.67 h
22 | N#Cc1cc(-c2ncc(CNc3cc(-c4cn[nH]c4)nc(C(F)(F)F)c3)cn2)ccc1F [Compound 38, 5-(5-(((2-(1H-Pyrazol-4-yl)-6-(trifluoromethyl)pyridin-4-yl)amino)methyl)pyrimidin-2-yl)-2-fluorobenzonitrile] | > 25 µM | 101 to 200 nM | –
23 | CC(C)Oc1ccc(-c2cnc(CNc3cc(-c4cnn(C)c4)nc(C(F)(F)F)c3)nc2)cc1 [Compound 44, N-((5-(4-Isopropoxyphenyl)pyrimidin-2-yl)methyl)-2-(1-methyl-1H-pyrazol-4-yl)-6-(trifluoromethyl)pyridin-4-amine] | – | 201 to 500 nM | > 1.67 h
24 | FC(F)(F)c1cc(SCc2nc3cc(Oc4ccccc4)ccc3[nH]2)cc(-c2cn[nH]c2)n1 [Compound 64, 2-(((2-(1H-pyrazol-4-yl)-6-(trifluoromethyl)pyridin-4-yl)thio)methyl)-5-phenoxy-1H-benzo[d]imidazole] | > 10 µM | 101 to 200 nM | –
25 | CC(C)Oc1ccc(-c2ccc(CNc3cc(-n4cncn4)nc(C(F)(F)F)c3)nc2)cc1 [Compound 25, N-((5-(4-Isopropoxyphenyl)pyridin-2-yl)methyl)-2-(1H-1,2,4-triazol-1-yl)-6-(trifluoromethyl)pyridin-4-amine] | – | 101 to 200 nM | > 1.67 h
26 | CC(C)Oc1ccc(-n2cc(CNc3cc(-c4cn[nH]c4)nc(C(F)(F)F)c3)nn2)cc1 [Compound 05, N-((1-(4-Isopropoxyphenyl)-1H-1,2,3-triazol-4-yl)methyl)-2-(1H-pyrazol-4-yl)-6-(trifluoromethyl)pyridin-4-amine] | > 25 µM | – | –
27 | Fc1ccc(Oc2ccc(-c3ncc(CNc4cc(-c5cn[nH]c5)nc(C(F)(F)F)c4)cn3)cc2)cc1 [Compound 53, N-((2-(4-(4-Fluorophenoxy)phenyl)pyrimidin-5-yl)methyl)-2-(1H-pyrazol-4-yl)-6-(trifluoromethyl)pyridin-4-amine] | – | 101 to 200 nM | > 1.67 h
